Reference: patent US20180028516A1, “METHODS AND DEVICES FOR THE TREATMENT OF OCULAR DISEASES IN HUMAN SUBJECTS” (CLEARSIDE BIOMEDICAL, INC., priority 2012, published 2018)

Experiments:
[1] = Safety endpoints (mortality, body weights, ocular observations, IOP) in the rabbit uveitis study (Example 11); format: in vivo, New Zealand White rabbits
Method: (§1) In this study, the effects of pretreatment with suprachoroidal or intravitreal triamcinolone acetonide (TA) in a subretinal endotoxin-induced model of posterior segment uveitis in New Zealand White rabbits was evaluated.
(§2) On Day 1, female rabbits (4 eyes/group) received a single unilateral injection of vehicle or 4 mg TA (Triesence®, 40 mg/mL suspension, Alcon Labs) into the suprachoroidal space (SCS) using a 33 g 750 μm microneedle, or a 4 mg TA IVT injection using a standard 30 g needle. On Day 6, each animal received a single unilateral subretinal injection of lipopolysaccharide (LPS, 20-30 μL, 203 μg/g of 1% sodium hylauronate) to induce ocular inflammation in the treated eye. Animals were monitored for 22 days following dose administration. Endpoints included body weights, ocular observations, slit lamp biomicroscopy with McDonald-Shadduck scoring and photography, indirect ophthalmoscopy, fundus photography, intraocular pressure (IOP), and histopathology. A summary of the study design is shown below, in Table 6.

[2] = tested on: subretinal endotoxin-induced model of posterior segment uveitis; test: Subretinal endotoxin-induced model of posterior segment uveitis, pretreatment with SCS or IVT TA (Example 11); format: in vivo, New Zealand White rabbits
Method: as §1, §2

[3] = Ophthalmic examinations (slit lamp, fundus) and clinical observations after SCS TA (Example 9); format: in vivo, New Zealand White rabbit
Method: In this study, the ocular tolerability and toxicokinetics of suprachoroidal administration of triamcinolone acetonide (TA) using a microneedle in a GLP study in the New Zealand White rabbit.
On Day 0, New Zealand White (NZW) rabbits were administered a single bilateral supraehoroidal injection of vehicle, 3.2 mg (80 μL) or 5.2 mg (130 μL) of TA (Triesence®, Alcoa labs) using a 33 g 750 μm microneedle. Clinical observations, slit lamp biomicroscopy with McDonald-Shadduck scoring, intraocular pressure assessment (IOP), electroretinography (ERG), and systemic exposure were assessed up to 26 weeks post-dose. Animals were sacrificed on Day 1, Week 13, and Week 26 for macroscopic observations, ocular toxicokinetics, and ocular histopathology.

[4] = tested on: LPS-induced acute posterior uveitis; test: Aqueous and vitreous humor inflammatory cell counts and protein concentration (Example 13); format: in vivo, domestic weanling pigs
Method: Pigs were euthanized on study day 3 after clinical scoring, OCT, ERG, and wide-field ocular fundus photography was completed. After euthanasia with an overdose of intravenous barbiturate, both eyes were removed, Aqueous humor (All) was aspirated and a 1 mL sample of vitreous humor (VH) was collected from each eye immediately after euthanasia. The globe was then fixed in Davidson's solution for 24 hours, followed by alcohol. Central, saggital sections of each globe, including the optic nerve, were stained with hematoxylin and eosin and examined by light microscopy. Two pathology-trained observers, masked to the study groups, graded degree of inflammatory infiltrate of the ocular anterior and posterior segments. The grading scale for the anterior and posterior ocular segment used was as follows: 0=no evidence of cellular infiltrate; 1=a few cells infiltrated (mild)−focal; 2=a few cells infiltrated (mild)−diffuse; 3=moderate number of cells infiltrated; and 4=high amount of cellular infiltrate.
After aspiration from the eyes, AH and VH were immediately placed on ice, transferred to the laboratory, then frozen at −80° C. until processing. Samples where thawed at room temperature, vortexed, and total cell counts were performed with a hemocytometer. Total protein concentration was measured using the […] (Pierce BCA Protein Assay Kit, Thermo Scientific Pierce, Rockford, Ill.).
Differences were considered significant at P<0.05.

[5] = Optical coherence tomography, retinal thickness (Example 13); format: in vivo, domestic weanling pigs; conditions: all groups, prior to or following the injections
Excerpt: Following wide-field ocular tlindus photography on Days −1, 0, and 3, the central retina was imaged with spectral-domain optical coherence tomography (SD-OCT) (Bioptigen SDOCT EnVisu Ophthalmic Imaging System, Durham, N.C.) using 6 imaging protocols (including rectangular volume scans of 6, 8, and 12 mm, and doppler rectangular volume).

[6] = Clinical observations and tolerability, SCS vs IVT TA (Example 10); format: in vivo, New Zealand White rabbit
Method: In this study, the ocular and systemic pharmacokinetics (PK) of triar cinolone acetonide (TA) in the New Zealand White rabbit following intravitreal […] injection or administration into the suprachoroidal space (SCS) using a hollow rnicroneedle were evaluated.
On Day 0, male rabbits (5 per group) received a single bilateral administration of 4 mg TA (100 μL Triesence triamcinolone formulationAlcon Labs) via SCS injection using a 33 g 750 μm microneedle or an IVT injection using a standard 30 g needle. The study design is shown below in Table 4.
Clinical observations, body weights, and intraocular pressure (IOP) were assessed up to 13 weeks post-dose. Plasma and ocular matrixes (aqueous humor (AH), lens, iris/ciliary body (ICB), vitreous humor (VH), sclera/choroid (SC), and retina) were sampled on Days 1, 14, 28, 56, and 91. Plasma (LLOQ 0.5 ng/mL) and ocular matrixes (LLOQ 2 -15 ng/mL) were analyzed using LC-MS/MS, and resulting data were assessed for noncompartmentat PK parameters.

[7] = tested on: LPS-induced acute posterior uveitis; test: Ocular inflammatory scores in LPS-induced porcine uveitis (Example 13); conditions: for mean cumulative inflammatory scores compared with Group 1 (BSS IVT/vehicle SCS): Days 1, 2, and 3
Method: A totalof 20 domestic wearrling pigs (Sus sergfir domesticus), male or female, (12-20 kg) were used in this study. Only the left eye was tested in this study; the right eye was not injected, examined, or treated. All injections were performed with the pigs anesthetized (intramuscular Telazol-Ketamine-Xylazine and isoflorane in oxygen via mask) and the eve prepared aseptically (sterile 5% betadine solution followed by irrigation with sterile eyewash).
Twenty-four hours prior to SCS or IVT injection of TA or vehicle (Day-1), 100 ng of lipopolysaccharide (ITS; E. coli 055:B55; Sigma, Inc. St. Louis, Mo.) in 100 μL BSS (Balanced Salt Solution, Alcon Laboratories, Inc., Forth Worth, Tex.), was injected using a 27 gauge needle into the posterior central vitreous.
Twenty-four hours after the LPS injection (Day 0), 0.2 mg or 2.0 mg of commercially-available TA (Triesence®; Alcon Laboratories, Inc, Forth Worth, Tex.) or vehicle was injected either intravitreally (27 gauge needle) or into the SCS (33 gauge, 850 μm microneedle) in eyes prepared aseptically (Table 7). The dose of TA was selected to represent a typical therapeutic dose (e.g., 2.0 mg) and a dose 10 times less to compare therapeutic effect.
All injections were made superiorly, approximately 5-6 mm posterior to the limbus. […] TA was diluted using vehicle to provide a low dose (0.2 mg/100 μL) or high dose (2.0 mg/100 μL). The vehicle (100 uL) was also used in the control groups, but without TA.
A Hackett-McDonald microscopic ocular inflammatory scoring system, modified for use in pigs (instead of New Zealand White rabbits) as described below, was used to evaluate the ocular anterior segment and anterior vitreous. Scores of the conjunctiva (congestion, swelling, discharge, 0-4); aqueous flare (0-3); pupillary light reflex (0-2); iris involvement (0-4); cornea (involvement and area, 0-4); pannus (vascularization, 0-2); and anterior vitreal cellular infiltrate (0-4) were summed to provide a single inflammatory score for each animal for each examination. Using a portable slit lamp biomicroscope (Zeiss HSO-10, Carl Zeiss Meditec, Inc. USA), ocular inflammatory scores were evaluated at Day -1 (prior to LPS injection), at Day 0 (prior to vehicle or TA injection), then at 1, 2 and 3 days after injection,
For histologic grading, two independent observers masked to the treatment group evaluated each eye at each time point and the average resulting scores for each animal were used for analysis, Parametric normally distributed data (i.e., IOP, ERG, retinal thickness, cell counts, protein concentration) were compared by time point for each group using 1-way ANOVA models with Tukey-Kramer post-hoc analysis. For non-parametric data (i.e., clinical scores, histologic grades), Wilcoxon tests were conducted per animal by time point. Differences were considered significant at P<0.05. Results and probAilities were calculated using computerized statistical software (JMP 10, SAS Inc. Cary, N.C.).

[8] = 3.2 mg TA/eye SCS, F, 13 weeks post administration
[9] = 5.2 mg TA/eye SCS, F, 13 weeks post administration
[10] = 5.2 mg TA/eye SCS, M, 13 weeks post administration

SMILES: CC1(C)O[C@@H]2C[C@H]3[C@@H]4CCC5=CC(=O)C=C[C@]5(C)[C@@]4(F)[C@@H](O)C[C@]3(C)[C@]2(C(=O)CO)O1 [TA, triamcinolone acetonide]
- IOP after SCS TA administration ([1]; 4 mg TA SCS): no significant increase
- effects on mortality, body weights, or ocular observations ([1]; 4 mg TA SCS or IVT): no test article- or administration-related effects
- Iris vessel dilation and tortuosity compared with the SCS vehicle group ([2]; 4 mg TA IVT): reduced to a lesser extent
- Vitritis, aqueous flare, and cellularity compared to SCS vehicle eyes ([2]; 4 mg TA IVT): substantially less severe
- inflammation as assessed histopathologically compared with the vehicle group ([2]; 4 mg TA IVT): marked reduction
- Iris vessel dilation and tortuosity compared with the SCS vehicle group ([2]; 4 mg TA SCS): reduced
- Vitritis, aqueous flare, and cellularity compared to SCS vehicle eyes ([2]; 4 mg TA SCS): substantially less severe
- inflammation as assessed histopathologically compared with the vehicle group ([2]; 4 mg TA SCS): marked reduction
- effectiveness in reducing the inflammatory response, SCS vs IVT ([2]; 4 mg TA SCS by hollow microneedle): as effective as 4 mg IVT TA
- overall inflammatory response / inflammatory endpoints compared to vehicle control ([2]; 4 mg TA SCS, pretreatment Day 1, LPS Day 6): significant reduction
- Conjunctival congestion (slight, transient), animals with finding [3, 8]: 2
- Conjunctival discharge (slight, transient), animals with finding [3, 8]: 2
- Corneal Staining (slight, transient), animals with finding [3, 8]: 1
- Hyperemia (severe, transient), animals with finding [3, 8]: 1
- Lens Defect (anatomic defect unrelated to administration), animals with finding [3, 8]: 1
- Corneal Staining (slight, transient), animals with finding ([3]; 3.2 mg TA/eye SCS, M, 13 weeks post administration): 1
- Conjunctival discharge (slight, transient), animals with finding [3, 9]: 1
- Corneal Staining (slight, transient), animals with finding [3, 9]: 2
- Conjunctival congestion (slight, transient), animals with finding [3, 10]: 1
- Corneal Staining (slight, transient), animals with finding [3, 10]: 4
- adverse effects on clinical observations, body weight, or ophthalmic examinations ([3]; 3.2 or 5.2 mg TA SCS): no adverse effects
- adverse effects related to treatment ([3]; 3.2 or 5.2 mg TA SCS): no observed adverse effects
- findings during slit lamp biomicroscopy and fundus examination ([3]; 3.2 or 5.2 mg TA SCS, up to 13 weeks): generally mild and transient in nature
- Mean AH cell counts compared with Groups 1, 5 or 6 ([4]; Group 3: low dose TA SCS): not significantly different
- Mean VH cell count compared with Group 1 and Group 4 ([4]; Group 3: low dose TA SCS): significantly higher
- Mean AH cell counts compared with Groups 1, 5 or 6 ([4]; Group 4: high dose TA SCS): not significantly different
- mean VH cell counts compared with Group 1, the untreated control ([4]; Group 4: high dose TA SCS): not significantly different
- mean vitreous humor protein concentrations compared with Groups 3, 5 and 6 ([4]; Group 4: high dose TA SCS): significantly lower
- Mean AH cell counts compared with Group 1 ([4]; Group 5: low dose TA IVT): significantly higher
- Mean VH cell count compared with Group 1 and Group 4 ([4]; Group 5: low dose TA IVT): significantly higher
- Mean AH cell counts compared with Group 1 ([4]; Group 6: high dose TA IVT): significantly higher
- mean aqueous humor protein concentration, differences among the groups ([4]; all groups): no significant differences
- retinal thickness (SD-OCT), difference between groups [5]: no significant difference
- adverse effects related to treatment or method of administration ([6]; SCS and IVT, 4 mg TA): no observed adverse effects
- tolerability ([6]; both IVT and SCS TA, 4 mg, albino rabbit): well tolerated
- effectiveness in reducing acute ocular inflammation ([7]; 0.2 mg TA IVT): less effective
- mean cumulative inflammatory scores compared with Groups 1, 3, 4 and 6 ([7]; 0.2 mg TA IVT (Group 5), 24 hours after treatment (Day 1)): significantly higher
- mean cumulative inflammatory scores compared with SCS TA (Groups 3 and 4) and Group 1 ([7]; 0.2 mg TA IVT, 48 and 72 hours after treatment): significantly higher mean scores
- mean cumulative inflammatory scores compared with Group 1 (BSS IVT/vehicle SCS) ([7]; 0.2 mg TA SCS (Group 3)): not significantly different
- mean cumulative inflammatory scores compared with Group 1 (BSS IVT/vehicle SCS) ([7]; 2.0 mg TA SCS (Group 4)): not significantly different
- effectiveness in reducing inflammation compared with 2.0 mg TA IVT injection ([7]; SCS injection of 0.2 mg and 2.0 mg of TA): as effective
- decrease in effective dose when the drug is delivered to the SCS ([7]; SCS vs IVT): 10 fold
